From BindingDB's records for patent US11912682 (Monte Rosa Therapeutics, 2024) come the findings set out here.

Bounds are passed on as bounds.

The target of this test is Protein cereblon (Homo sapiens, UniProt Q96SW2). The test is described as follows: Compound Activity by Fluorescent Polarization Assay. The protocol: Compound activity was monitored in a fluorescence polarization (FP) homogeneous assay using 1-[5-({2-[2-(2-{[2-(2,6-dioxopiperidin-3-yl)-1,3-dioxo-2,3-dihydro-1H-isoindol-4-yl]oxy}acetamido)ethoxy]ethyl}carbamoyl)pentyl]-3,3-dimethyl-2-[(1E,3E)-5-[(2E)-1,3,3-trimethyl-5-sulfo-2,3-dihydro-1H-indol-2-ylidene]penta-1,3-dien-1-yl]-3H-indol-1-ium-5-sulfonate as a fluorescent probe. Unless otherwise stated, all reagents were purchased from Sigma Aldrich. Enzymatic reactions were conducted in Perkin-Elmer Black 384 well ProxiPlate Plus (catalogue no. 6008269) in 10 μL total volume. Full length wild-type cereblon CRBN (80.0 nM, 10 μL) was incubated in assay buffer containing 20 mM HEPES (pH 8.0), […], 0.5 mM TCEP and 0.05% Tween 20 in the presence or absence of compound (300 nL). Inhibitors were stored as 10 mM DMSO stocks in an inert environment (low humidity, dark, low oxygen, room temperature) using the Storage Pod System. Compounds and DMSO were dispensed using the Echo ESXX (Labcyte Inc. USA) to give concentrations from 300 to 0.937 or 3000 to 9.3 nM in a 12 data point curve. […] FP was measured after a period of 12 hours using a Pherastar plate reader (BMG Labtech, Germany) exciting at 590 nm and measuring the amount of parallel and perpendicular light at 675 nm. […]
Protein cereblon, sequence (Q96SW2 whole entry): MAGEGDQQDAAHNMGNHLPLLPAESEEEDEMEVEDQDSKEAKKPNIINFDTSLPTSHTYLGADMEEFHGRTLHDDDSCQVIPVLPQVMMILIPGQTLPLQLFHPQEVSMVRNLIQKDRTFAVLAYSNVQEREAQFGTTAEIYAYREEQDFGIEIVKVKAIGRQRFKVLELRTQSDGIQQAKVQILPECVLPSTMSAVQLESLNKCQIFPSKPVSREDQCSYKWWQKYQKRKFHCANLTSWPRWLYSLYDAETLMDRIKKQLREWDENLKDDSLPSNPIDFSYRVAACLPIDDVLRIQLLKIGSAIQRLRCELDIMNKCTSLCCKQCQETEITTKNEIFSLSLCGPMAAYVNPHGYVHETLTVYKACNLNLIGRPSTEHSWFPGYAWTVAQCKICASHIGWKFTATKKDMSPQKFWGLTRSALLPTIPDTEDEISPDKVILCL

For `O=C1CCC(N2Cc3ccc(COC(=O)Nc4cc(Cl)cc(OC(F)(F)F)c4)cc3C2=O)C(=O)N1` (stereo unspecified) [US11912682, Compound 11], the IC50 is above 1700 nM.
